Key:
[1] = molar heat capacity at saturation pressure
[2] = Molar enthalpy of transition or fusion; conditions: Adiabatic calorimetry

c1ccc2c(c1)CCC2 [indane]
molar heat capacity [J/K/mol], [1]
Conditions | Crystal 1, Vacuum adiabatic calorimetry | Crystal 2, Vacuum adiabatic calorimetry
5 K | – | 0.291
5.31 K | – | 0.3492
6.26 K | – | 0.6236
7.189 K | – | 0.9811
8.165 K | – | 1.463
9.174 K | – | 2.12
10 K | – | 2.735
10.22 K | – | 2.918
11.36 K | – | 3.891
12.63 K | – | 5.097
14.04 K | – | 6.61
15.6 K | – | 8.364
17.35 K | – | 10.43
19.29 K | – | 12.76
20 K | – | 13.61
21.45 K | – | 15.35
23.86 K | – | 18.19
26.55 K | – | 21.27
29.53 K | – | 24.47
30 K | – | 24.96
32.82 K | – | 27.82
36.45 K | – | 31.27
40 K | – | 34.44
40.47 K | – | 34.84
44.94 K | – | 38.64
49.87 K | – | 42.67
50 K | – | 42.77
52.71 K | – | 44.96
55.33 K | – | 47.14
57.68 K | – | 49.16
60 K | – | 51.24
62 K | – | 53.22
62.18 K | – | 53.45
62.48 K | – | 53.74
63.41 K | – | 54.75
64 K | – | 55.47
66 K | – | 57.83
67.11 K | – | 59.51
68 K | – | 60.76
70 K | – | 64.04
70.7 K | – | 67.01
70.76 K | – | 67.17
72 K | – | 67.68
72.08 K | – | 72.89
72.27 K | – | 74.46
72.75 K | – | 77.96
73.08 K | – | 82.15
73.38 K | – | 89.8
73.83 K | 57.49 | 71.43
74 K | 57.55 | –
74.14 K | 63.18 | –
74.52 K | 59.93 | –
74.89 K | 59.45 | –
76 K | 58.28 | –
76.02 K | 59.19 | –
77.68 K | 59.3 | –
78 K | 59.01 | –
79.98 K | 59.88 | –
80 K | 59.74 | –
82.01 K | 60.53 | –
82.05 K | 60.55 | –
82.97 K | 60.84 | –
83.17 K | 60.91 | –
90 K | 63.39 | –
91.46 K | 63.9 | –
100 K | 67.07 | –
100.48 K | 67.26 | –
110.07 K | 70.8 | –
119.85 K | 74.38 | –
120 K | 74.45 | –
129.73 K | 78.16 | –
138.66 K | 81.54 | –
139.61 K | 81.94 | –
140 K | 82.06 | –
148.52 K | 85.42 | –
158.5 K | 89.5 | –
160 K | 90.14 | –
168.63 K | 93.87 | –
178.81 K | 98.43 | –
180 K | 99 | –
184.22 K | 100.9 | –
189.01 K | 103.32 | –
194.75 K | 106.22 | –
199.29 K | 108.5 | –
200 K | 108.89 | –
205.19 K | 111.62 | –
209.54 K | 113.96 | –
212.42 K | 115.59 | –
214.32 K | 116.35 | –
220 K | 119.51 | –
221.79 K | 120.47 | –

[1], Liquid
Conditions | molar heat capacity [J/K/mol]
221.79 K, Vacuum adiabatic calorimetry | 163.91
228.22 K, Vacuum adiabatic calorimetry | 165.72
228.34 K, Vacuum adiabatic calorimetry | 165.76
229.69 K, Vacuum adiabatic calorimetry | 166.13
229.78 K, Vacuum adiabatic calorimetry | 166.24
230 K, Vacuum adiabatic calorimetry | 166.22
236.45 K, Vacuum adiabatic calorimetry | 168.04
238.81 K, Vacuum adiabatic calorimetry | 168.76
240 K, Vacuum adiabatic calorimetry | 169.13
250 K, Vacuum adiabatic calorimetry | 172.31
250.13 K, Vacuum adiabatic calorimetry | 172.35
260 K, Vacuum adiabatic calorimetry | 175.75
262.1 K, Vacuum adiabatic calorimetry | 176.48
262.28 K, Vacuum adiabatic calorimetry | 176.54
270 K, Vacuum adiabatic calorimetry | 179.48
274.49 K, Vacuum adiabatic calorimetry | 181.2
275.32 K, Vacuum adiabatic calorimetry | 181.5
280 K, Vacuum adiabatic calorimetry | 183.04
286.77 K, Vacuum adiabatic calorimetry | 185.35
288.6 K, Vacuum adiabatic calorimetry | 185.93
290 K, Vacuum adiabatic calorimetry | 186.46
297.89 K, Vacuum adiabatic calorimetry | 189.38
298.15 K, Vacuum adiabatic calorimetry | 189.48
299.11 K, Vacuum adiabatic calorimetry | 189.82
300 K, Vacuum adiabatic calorimetry | 190.18
301.9 K, Vacuum adiabatic calorimetry | 190.91
310 K, Vacuum adiabatic calorimetry | 194.12
310.2 K, Vacuum adiabatic calorimetry | 194.19
311.46 K, Vacuum adiabatic calorimetry | 194.67
320 K, Vacuum adiabatic calorimetry | 198.07
322.46 K, Vacuum adiabatic calorimetry | 199.08
330 K, Vacuum adiabatic calorimetry | 202.15
333.38 K, Vacuum adiabatic calorimetry | 203.54
334.63 K, Vacuum adiabatic calorimetry | 204.04
340 K, Vacuum adiabatic calorimetry | 206.3
347.49 K, Vacuum adiabatic calorimetry | 209.45
350 K, Vacuum adiabatic calorimetry | 210.48
360 K, Vacuum adiabatic calorimetry | 214.61
360.87 K, Vacuum adiabatic calorimetry | 214.96
370 K, Vacuum adiabatic calorimetry | 218.8
374.71 K, Vacuum adiabatic calorimetry | 220.8
380 K, Vacuum adiabatic calorimetry | 223.03
388.61 K, Vacuum adiabatic calorimetry | 226.66
390 K, Vacuum adiabatic calorimetry | 227.25
400 K, Vacuum adiabatic calorimetry | 231.47
402.42 K, Vacuum adiabatic calorimetry | 232.49
409.24 K, Vacuum adiabatic calorimetry | 235.36
410 K, Vacuum adiabatic calorimetry | 235.68
415.99 K, Vacuum adiabatic calorimetry | 238.21
420 K, Vacuum adiabatic calorimetry | 239.88
426.54 K, Vacuum adiabatic calorimetry | 242.6
428.9 K, Vacuum adiabatic calorimetry | 243.53
430 K, Vacuum adiabatic calorimetry | 244.05
439.86 K, Vacuum adiabatic calorimetry | 248.28
440 K, Vacuum adiabatic calorimetry | 248.4
450 K, Small sample (50 mg) DSC | 253.17
460 K, Small sample (50 mg) DSC | 258.04
470 K, Small sample (50 mg) DSC | 262.7
480 K, Small sample (50 mg) DSC | 267.2
490 K, Small sample (50 mg) DSC | 271.71
500 K, Small sample (50 mg) DSC | 276.21
510 K, Small sample (50 mg) DSC | 280.72
520 K, Small sample (50 mg) DSC | 285.23
530 K, Small sample (50 mg) DSC | 289.72
540 K, Small sample (50 mg) DSC | 294.22
550 K, Small sample (50 mg) DSC | 298.7
560 K, Small sample (50 mg) DSC | 303.18
570 K, Small sample (50 mg) DSC | 307.65
580 K, Small sample (50 mg) DSC | 312.12
590 K, Small sample (50 mg) DSC | 316.59
600 K, Small sample (50 mg) DSC | 321.05

[2]
Conditions | Molar enthalpy of transition or fusion [kcal/mol]
Crystal 1 | 2.044
Crystal 2 | 0.0363
